Results from patent US10590078B2, “Sodium channel blockers” (Daewoong Pharmaceutical Co., Ltd., priority 2015, dated 2020).
pIC50: −log10 of the molar value.

Target: human sodium ion channel 1.7 (hNav1.7) (Homo sapiens, UniProt Q15858)
Experiment: Blocking effect against sodium ion channel Nav1.7, IonFlux16 auto patch clamp in hNav1.7 HEK293 cells
Format: cell-based
Conditions: hNav1.7 HEK293 cells; inhibition of peak current after 50 seconds treatment; eight concentrations; read-out: IC50

Sequence of human sodium ion channel 1.7 (hNav1.7) (Q15858 whole entry): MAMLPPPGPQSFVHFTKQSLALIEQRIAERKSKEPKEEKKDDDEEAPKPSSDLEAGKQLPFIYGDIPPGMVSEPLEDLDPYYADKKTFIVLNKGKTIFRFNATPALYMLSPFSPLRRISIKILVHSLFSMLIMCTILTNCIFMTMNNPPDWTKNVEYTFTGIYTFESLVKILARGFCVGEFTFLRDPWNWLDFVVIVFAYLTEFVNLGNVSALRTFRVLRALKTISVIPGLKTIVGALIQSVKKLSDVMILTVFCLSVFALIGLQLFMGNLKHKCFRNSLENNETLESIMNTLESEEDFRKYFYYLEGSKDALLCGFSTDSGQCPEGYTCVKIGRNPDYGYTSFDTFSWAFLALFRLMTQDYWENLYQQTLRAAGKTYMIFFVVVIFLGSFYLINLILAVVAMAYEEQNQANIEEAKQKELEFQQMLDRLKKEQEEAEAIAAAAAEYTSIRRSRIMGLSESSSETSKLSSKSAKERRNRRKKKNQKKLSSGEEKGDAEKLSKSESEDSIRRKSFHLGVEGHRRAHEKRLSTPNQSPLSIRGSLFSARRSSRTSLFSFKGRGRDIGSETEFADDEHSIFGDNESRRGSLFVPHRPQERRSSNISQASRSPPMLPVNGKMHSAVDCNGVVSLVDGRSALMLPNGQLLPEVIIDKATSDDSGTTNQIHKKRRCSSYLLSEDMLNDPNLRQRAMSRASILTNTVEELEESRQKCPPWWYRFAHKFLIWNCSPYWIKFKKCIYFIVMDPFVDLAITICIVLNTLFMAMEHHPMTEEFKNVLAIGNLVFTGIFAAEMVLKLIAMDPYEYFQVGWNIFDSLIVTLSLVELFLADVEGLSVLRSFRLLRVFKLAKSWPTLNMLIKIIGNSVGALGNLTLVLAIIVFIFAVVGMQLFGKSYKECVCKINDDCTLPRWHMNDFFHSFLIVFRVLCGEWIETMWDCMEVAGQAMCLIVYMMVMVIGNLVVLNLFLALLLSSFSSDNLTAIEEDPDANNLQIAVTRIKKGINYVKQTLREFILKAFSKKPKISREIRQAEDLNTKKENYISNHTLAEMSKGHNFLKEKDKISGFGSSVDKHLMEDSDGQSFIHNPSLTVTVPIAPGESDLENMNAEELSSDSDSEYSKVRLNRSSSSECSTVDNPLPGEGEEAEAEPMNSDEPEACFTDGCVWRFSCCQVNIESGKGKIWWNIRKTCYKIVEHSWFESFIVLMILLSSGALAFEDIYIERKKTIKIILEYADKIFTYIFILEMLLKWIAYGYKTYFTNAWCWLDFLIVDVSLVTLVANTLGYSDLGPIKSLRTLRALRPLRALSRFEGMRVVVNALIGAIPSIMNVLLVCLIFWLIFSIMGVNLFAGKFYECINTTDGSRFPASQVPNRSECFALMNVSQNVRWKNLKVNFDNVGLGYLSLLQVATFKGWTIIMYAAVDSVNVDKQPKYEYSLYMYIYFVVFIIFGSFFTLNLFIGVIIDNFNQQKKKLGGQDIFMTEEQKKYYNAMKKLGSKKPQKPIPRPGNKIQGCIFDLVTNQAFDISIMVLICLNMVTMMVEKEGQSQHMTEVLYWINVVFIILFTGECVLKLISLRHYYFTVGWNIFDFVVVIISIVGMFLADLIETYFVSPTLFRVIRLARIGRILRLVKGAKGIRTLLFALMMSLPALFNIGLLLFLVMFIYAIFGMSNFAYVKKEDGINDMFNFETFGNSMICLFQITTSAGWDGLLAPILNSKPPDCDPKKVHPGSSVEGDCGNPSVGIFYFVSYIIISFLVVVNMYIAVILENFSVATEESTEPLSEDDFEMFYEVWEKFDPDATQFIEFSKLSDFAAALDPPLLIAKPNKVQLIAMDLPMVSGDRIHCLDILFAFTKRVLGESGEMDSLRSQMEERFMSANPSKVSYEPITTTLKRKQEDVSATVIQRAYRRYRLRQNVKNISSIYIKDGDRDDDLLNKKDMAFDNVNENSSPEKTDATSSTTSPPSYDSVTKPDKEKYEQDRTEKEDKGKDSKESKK

Structure (SMILES)	pIC50
CS(=O)(=O)NC(=O)c1cc(Cl)c(-n2nc(Cl)c3cc(-c4ccccc4C#N)ccc32)cc1F [Example 237, 5-chloro-4-(3-chloro-5-(2-cyanophenyl)-1H-indazol-1-yl)-2-fluoro-N-(methylsulfonyl)benzamide]	< 5.00
CS(=O)(=O)NC(=O)c1cc(Cl)c(-n2nc(Cl)c3cc(-c4ccc(F)c(C#N)c4)ccc32)cc1F [Example 239, 5-chloro-4-(3-chloro-5-(3-cyano-4-fluorophenyl)-1H-indazol-1-yl)-2-fluoro-N-(methylsulfonyl)benzamide]	6.55
CS(=O)(=O)NC(=O)c1cc(Cl)c(-n2nc(Cl)c3cc(-c4ccc(C#N)cc4)ccc32)cc1F [Example 240, 5-chloro-4-(3-chloro-5-(4-cyanophenyl)-1H-indazol-1-yl)-2-fluoro-N-(methylsulfonyl)benzamide]	6.12
CS(=O)(=O)NC(=O)c1cc(Cl)c(-n2nc(Cl)c3cc(-c4cncnc4)ccc32)cc1F [Example 241, 5-chloro-4-(3-chloro-5-(pyrimidin-5-yl)-1H-indazol-1-yl)-2-fluoro-N-(methylsulfonyl)benzamide]	< 5.00
CS(=O)(=O)NC(=O)c1cc(Cl)c(-n2nc(Cl)c3cc(-c4cncc(Cl)c4)ccc32)cc1F [Example 242, 5-chloro-4-(3-chloro-5-(5-chloropyridin-3-yl)-1H-indazol-1-yl)-2-fluoro-N-(methylsulfonyl)benzamide]	6.09
COc1ccc(-c2ccc3c(c2)c(Cl)nn3-c2cc(F)c(C(=O)NS(C)(=O)=O)cc2Cl)cc1 [Example 248, 5-chloro-4-(3-chloro-5-(4-methoxyphenyl)-1H-indazol-1-yl)-2-fluoro-N-(methylsulfonyl)benzamide]	7.06

Results, then the compound that gave them:

pIC50	Structure (SMILES)
7.05	CS(=O)(=O)NC(=O)c1cc(Cl)c(-n2nc(Cl)c3cc(-c4cccc(F)c4)ccc32)cc1F [Example 235, 5-chloro-4-(3-chloro-5-(3-fluorophenyl)-1H-indazol-1-yl)-2-fluoro-N-(methylsulfonyl)benzamide]
7.15	CS(=O)(=O)NC(=O)c1cc(Cl)c(-n2nc(Cl)c3cc(-c4ccc(F)cc4)ccc32)cc1F [Example 236, 5-chloro-4-(3-chloro-5-(4-fluorophenyl)-1H-indazol-1-yl)-2-fluoro-N-(methylsulfonyl)benzamide]
6.47	CS(=O)(=O)NC(=O)c1cc(Cl)c(-n2nc(Cl)c3cc(-c4cc(C#N)ccc4F)ccc32)cc1F [Example 238, 5-chloro-4-(3-chloro-5-(5-cyano-2-fluorophenyl)-1H-indazol-1-yl)-2-fluoro-N-(methylsulfonyl)benzamide]
6.76	CS(=O)(=O)NC(=O)c1cc(Cl)c(-n2nc(Cl)c3cc(-c4ccc(F)cc4F)ccc32)cc1F [Example 243, 5-chloro-4-(3-chloro-5-(2,4-difluorophenyl)-1H-indazol-1-yl)-2-fluoro-N-(methylsulfonyl)benzamide]
5.63	CS(=O)(=O)NC(=O)c1cc(Cl)c(-n2nc(Cl)c3cc(-c4cccnc4F)ccc32)cc1F [Example 244, 5-chloro-4-(3-chloro-5-(2-fluoropyridin-3-yl)-1H-indazol-1-yl)-2-fluoro-N-(methylsulfonyl)benzamide]
5.78	CS(=O)(=O)NC(=O)c1cc(Cl)c(-n2nc(Cl)c3cc(-c4ccc(F)nc4)ccc32)cc1F [Example 245, 5-chloro-4-(3-chloro-5-(6-fluoropyridin-3-yl)-1H-indazol-1-yl)-2-fluoro-N-(methylsulfonyl)benzamide]
5.98	CS(=O)(=O)NC(=O)c1cc(Cl)c(-n2nc(Cl)c3cc(-c4ccc(F)nc4F)ccc32)cc1F [Example 246, 5-chloro-4-(3-chloro-5-(2,6-difluoropyridin-3-yl)-1H-indazol-1-yl)-2-fluoro-N-(methylsulfonyl)benzamide]
6.52	CS(=O)(=O)NC(=O)c1cc(Cl)c(-n2nc(Cl)c3cc(-c4ccc(Cl)cc4F)ccc32)cc1F [Example 247, 5-chloro-4-(3-chloro-5-(4-chloro-2-fluorophenyl)-1H-indazol-1-yl)-2-fluoro-N-(methylsulfonyl)benzamide]
